Tested on: Human follicular cell line RL
Experiment: CDX model for FL: RL cells subcutaneously in SCID mice
Assay type: in vivo
Settings: RL xenograft in SCID mice
Protocol: Human follicular cell line RL was subcutaneously injected in SCID mice, with a concentration of 5.10^6 cells per injection (200 μL). Mice were randomized when the tumors reached a mean volume of about 100 mm^3 for the 9 groups (total 45 mice). […] The endpoint was defined by animal ethics as a tumor diameter of >18 mm, significant weight loss or alteration of animal well-being. In order to assess the effectiveness of the compounds on tumorigenesis, tumor volume was measured two times a week. The sizes of the primary tumors were measured using calipers and the tumor volume (TV) was extrapolated to a sphere using the formula TV=4/3 […]×r^3, by calculating the mean radius from the two measurements. The median and standard deviation were also calculated for each group. Median is preferred to mean in order to exclude the extreme values. MAb treatment was administered by intraperitoneal injection twice a week during three weeks at 30, 10 or 1 mg/kg doses. The product was prepared in accordance with the sponsor's guidelines, i.e. diluted in PBS. Mice were sacrificed when the tumors reached a maximum volume of 1600 mm^3. The endpoints were defined by […] as a tumor diameter of >18 mm or weight loss of >10% of body weight, or when the tumors are dangerous for mice (necrosis). Statistical analysis was performed with GraphPad Prism software. GraphPad Prism combined scientific graphing, comprehensive curve fitting, understandable statistics, and data organization. The t-test (two-tailed test) was performed on the tumor volume values (mm^3) measured on the day of sacrifice.

[1] = Day 55, 1 mg/kg each MAb, percentage of mice

rituximab
mice in complete remission (1 mg/kg, day 45): 33%
Complete Remission [1]: 33
Tumor progression [1]: 67

Source: patent US11634488B2, “Treatment of B cell malignancies using afucosylated pro-apoptotic anti-CD19 antibodies in combination with anti CD20 antibodies or chemotherapeutics” (INTERNATIONAL—DRUG—DEVELOPMENT—BIOTECH, priority 2017, dated 2023)
